12 compounds from ChEMBL document CHEMBL1201862, “PubChem BioAssay data set” (2004) can be followed below.

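All cell lines were grown in 96-well plates and treated with compound for 48 hours. GI50 = concentration required for 50% inhibition of growth.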 Calls of active or inactive are those of the source. Cut-off read from the data, not from the text of the source: active = GI50 up to about 1.1 µM and inactive = higher.

Common to all, as to experiment: NCI-60 cell line screen, 48 h
The subject of assay [1] is SK-MEL-28.
Assay [2] relates to SF-539.
For assay [3], the system named is PC-3.
The test system of assay [4] is COLO 205.
Assay [5] deals with MDA-N.
Assay [6] concerns K562.
For assay [7], the system named is Malme-3M.
The subject of assay [8] is MOLT-4.
The subject of assay [9] is MDA-MB-435.
The test system of assay [10] is SK-MEL-5.
Assay [11] has as its system U-251.
Assay [12] concerns UO-31.
The test system of assay [13] is HOP-62.
Assay [14] relates to SF-295.
Assay [15] concerns UACC-62.
Assay [16] deals with SR.
In assay [17] the test system is HCC 2998.
In assay [18] the test system is OVCAR-4.
For assay [19], the system named is SNB-75.

Consider `COC1=C2C[C@@H](C)C[C@@H](OC)[C@@H](O)[C@H](C)/C=C(\C)[C@@H](OC(N)=O)[C@H](OC)/C=C\C=C(/C)C(=O)NC(=CC1=O)C2=O`, for which the GI50 was 0.113 µM (active) in assay [1]; 0.132 µM (active) in [2]; 0.122 µM (active) in assay [3]; 0.0116 µM (active) in [4]; 0.0216 µM (active) in [5]; 0.0115 µM (active) in assay [6]. In addition, the GI50 is 0.044 µM (active) in [7]; 0.0199 µM (active) in assay [8]; 0.0309 µM (active) in assay [9]; 0.678 µM (active) in assay [10]; 2.93 µM (inactive) in assay [11]; 0.189 µM (active) in assay [12]. The GI50 is 3.38 µM (inactive) in [13], 9.38 µM (inactive) in assay [14] and 0.122 µM (active) in [15].

For the compound `O=c1cc(NNc2ccc3ccccc3c2)[nH]c(=S)[nH]1`, the GI50 in assay [1] was 49.9 µM (inactive); in assay [2], 30.3 µM (inactive); in [3], 19.8 µM (inactive); in [16] it was 29.7 µM (inactive); in [4], 23.2 µM (inactive); in [5] it was 45.6 µM (inactive). In addition, the GI50 in assay [6] is 18.6 µM (inactive); in assay [7] it was 63.7 µM (inactive); in assay [17] it was 24 µM (inactive); in [9] it was 23.4 µM (inactive); in assay [10], > 100 µM (inactive); in assay [11], 27 µM (inactive). The GI50 is > 100 µM (inactive) in assay [12], 27.4 µM (inactive) in assay [13], 68.7 µM (inactive) in assay [18] and 61.9 µM (inactive) in [14].

On to `CCC/C=C1\CCC(CN(C)C)C1=O` (stereo unspecified), for which the GI50 in [1] is 6.52 µM (inactive); in assay [2], 10.8 µM (inactive); in assay [19], 18.1 µM (inactive); in assay [16] it was 2.49 µM (inactive); in [4], 3.1 µM (inactive); in assay [6], 2.15 µM (inactive). The GI50 is 1.77 µM (inactive) in assay [7]; 15.8 µM (inactive) in assay [17]; 2.88 µM (inactive) in assay [8]; 16.7 µM (inactive) in [10]; 5.81 µM (inactive) in assay [11]; 12.4 µM (inactive) in [12]. Also, the GI50 in assay [13] was 15.7 µM (inactive); in [18], 18.8 µM (inactive); in assay [14] it was 24.1 µM (inactive); in [15], 14.6 µM (inactive).

For the compound `O=C1/C(=c2\s/c(=C\c3ccccc3)c(=O)n2-c2ccccc2)SC(=S)N1c1ccccc1`, the GI50 in [1] was 63.1 µM (inactive); in [2] it was 21.5 µM (inactive); in assay [3] it was 55 µM (inactive); in assay [19], 19.4 µM (inactive); in assay [16], 10.7 µM (inactive); in assay [4], 63.5 µM (inactive). The GI50 in [5] was 94.6 µM (inactive); in assay [6], 47.2 µM (inactive); in assay [7], 28.7 µM (inactive); in assay [17], 70.5 µM (inactive); in [8] it was 45.4 µM (inactive); in [9], 49.8 µM (inactive). Besides, the GI50 in [10] was 53.2 µM (inactive); in assay [11], 23.4 µM (inactive); in assay [18] it was 29.4 µM (inactive); in [14] it was 30.3 µM (inactive); in [15], 35.6 µM (inactive).

Consider `O=C(/C=C/c1cc(F)ccc1F)OCCc1ccccc1`, for which the GI50 in assay [1] is > 100 µM (inactive); in assay [2], 88.5 µM (inactive); in assay [3], 49.4 µM (inactive); in [19] it was 83.6 µM (inactive); in assay [16] it was 40.2 µM (inactive); in assay [4], > 100 µM (inactive). Moreover, the GI50 was 91.4 µM (inactive) in [5]; 52.1 µM (inactive) in [6]; > 100 µM (inactive) in assay [7]; > 100 µM (inactive) in [17]; 49.3 µM (inactive) in assay [8]; > 100 µM (inactive) in assay [9]. For the same compound, the GI50 was 29.2 µM (inactive) in [10]; 33 µM (inactive) in [11]; 95.7 µM (inactive) in assay [12]; > 100 µM (inactive) in assay [13]; 0.933 µM (active) in assay [18]; 86.5 µM (inactive) in [15].

For `Cc1nc(C(N)=S)sc1C(=O)CC(=O)C(=O)Nc1c(C(C)C)cccc1C(C)C`, the GI50 in assay [1] is > 100 µM (inactive); in [2], 44.4 µM (inactive); in [19], 25.2 µM (inactive); in assay [16] it was 26.4 µM (inactive); in assay [4] it was 43.3 µM (inactive); in assay [6], 24.3 µM (inactive). Further, the GI50 in assay [7] is 39.2 µM (inactive); in assay [17], 43.3 µM (inactive); in assay [8] it was 41 µM (inactive); in [10], 54.6 µM (inactive); in assay [11], 36.6 µM (inactive); in assay [12], 39.3 µM (inactive). For the same compound, the GI50 was 86.9 µM (inactive) in assay [13], > 100 µM (inactive) in [18], 29.2 µM (inactive) in assay [14] and 42.5 µM (inactive) in [15].

Consider `NC(Cc1ccc(O)cn1)C(=O)O` (stereo unspecified), for which the GI50 in assay [1], in [2], in assay [3], in assay [19], in assay [16] and in [4] was > 100 µM (inactive) in each case. Besides, the GI50 in assay [5] was > 100 µM (inactive); in assay [6], > 100 µM (inactive); in [7] it was > 100 µM (inactive); in assay [17], > 100 µM (inactive); in [8], > 100 µM (inactive); in assay [9], 84.1 µM (inactive). Moreover, the GI50 is > 100 µM (inactive) in [10]; 35.2 µM (inactive) in [11]; > 100 µM (inactive) in [12]; > 100 µM (inactive) in [13]; > 100 µM (inactive) in assay [18]; > 100 µM (inactive) in assay [14].

Regarding `c1ccc(C2=NOC3C4CCC(C4)C23)cc1` (stereo unspecified), the GI50 in assay [1], in [2], in assay [19], in [16], in assay [4] and in [6] was > 100 µM (inactive) throughout. Also, the GI50 in assay [7], in assay [17], in [8], in assay [10], in assay [11] and in assay [12] was > 100 µM (inactive) throughout. Further, the GI50 in assay [13], in assay [18], in assay [14] and in assay [15] was > 100 µM (inactive) each time.

With `O=C1Nc2cc([N+](=O)[O-])c(Br)cc2C1=O`, the GI50 in assay [1] is 21.3 µM (inactive); in [2], 22.4 µM (inactive); in assay [19], 19 µM (inactive); in assay [16], 10.2 µM (inactive); in assay [4], 18.4 µM (inactive); in assay [6], 18.1 µM (inactive). For the same compound, the GI50 in assay [7] is 22.5 µM (inactive); in assay [17] it was > 10 µM (inactive); in [8], 10.4 µM (inactive); in assay [10], 21.1 µM (inactive); in [11], > 10 µM (inactive); in assay [12], 18.5 µM (inactive). The GI50 in [13] was 28.4 µM (inactive); in assay [18] it was 16.4 µM (inactive); in assay [14], 3.68 µM (inactive); in assay [15] it was 18.7 µM (inactive).

With `COC(=O)/C(=N/NC(N)=O)C(C(=O)OC)C(=O)C(=O)Nc1ccc(Cl)cc1` (stereo unspecified), the GI50 in [1] is > 100 µM (inactive); in assay [2], > 100 µM (inactive); in assay [19], > 100 µM (inactive); in [16], 20.8 µM (inactive); in assay [4], > 100 µM (inactive); in assay [6] it was > 43.6 µM (inactive). Moreover, the GI50 in assay [7], in assay [17], in assay [8], in [10], in [11] and in assay [12] was > 100 µM (inactive) in each case. The GI50 in [13], in [18], in assay [14] and in assay [15] was > 100 µM (inactive) each time.

`CCCCCCCCCC(=O)OCC1OC(n2cc(F)c(=O)[nH]c2=O)C(N)C(OC(=O)CCCCCCCCC)C1O` (stereo unspecified): the GI50 in [1] was 16.7 µM (inactive); in assay [2] it was 18.4 µM (inactive); in assay [19], 16.3 µM (inactive); in [16] it was 19.7 µM (inactive); in [4], 17.5 µM (inactive); in assay [6], 16.7 µM (inactive). In addition, the GI50 in assay [7] is 16.9 µM (inactive); in assay [17] it was 15.5 µM (inactive); in assay [8], 14.1 µM (inactive); in assay [10], 22.6 µM (inactive); in assay [11], 17.1 µM (inactive); in assay [12] it was 21.6 µM (inactive). In addition, the GI50 was 37.2 µM (inactive) in [13], 15.8 µM (inactive) in assay [18], 17.8 µM (inactive) in [14] and 17.9 µM (inactive) in [15].

`CC(=O)NC1=C(C)C(=O)c2c(nc3n2CCC3O)C1=N` (stereo unspecified): the GI50 is 17.2 µM (inactive) in [1]; 4.15 µM (inactive) in assay [2]; 26.2 µM (inactive) in [19]; > 100 µM (inactive) in assay [16]; 18.9 µM (inactive) in [4]; 8.67 µM (inactive) in assay [6]. Besides, the GI50 in assay [7] was 6.41 µM (inactive); in assay [17], 21.3 µM (inactive); in assay [8], 1.95 µM (inactive); in [10], 13 µM (inactive); in assay [11], 13.2 µM (inactive); in assay [12], 22.9 µM (inactive). For the same compound, the GI50 was 38.8 µM (inactive) in assay [13], 4.09 µM (inactive) in assay [18], 19.3 µM (inactive) in [14] and 4.71 µM (inactive) in [15].
